Laboratory results taken from US6540988B1, “Method of reducing or preventing malodour” (Quest International B.V., priority 1998, dated 2003).

Test system: bacterial production of odoriferous steroids
Experiment: sub-lethal inhibition of the bacterial production of odoriferous steroids
Format: cell-based

CC(C)(C)NC(=O)[C@H]1CC[C@H]2[C@@H]3CC[C@H]4NC(=O)C=C[C@]4(C)[C@H]3CC[C@]12C [finasteride]
sub-lethally inhibiting the bacterial production of odoriferous steroids: incapable of sub-lethally inhibiting
